Reference: the supplement of paper PMC12137928
Where a name gives a salt, the structure may show the parent alone.

System: HCT116
Settings: 72 h
Method in brief: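 HCT116 cells were seeded at 250 per well in 1536-well plates and left 5 h to attach. CellTiter-Glo luminescence was scaled to vehicle (0%) and positive control (-100%), then pattern-corrected. IC50 and maximal efficacy came from four-parameter Hill fits.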

IC50 cell viability (ICRF193 0 nM) | IC50 cell viability (ICRF193 200 nM) | Compound
> 45.8 µM | > 45.8 µM | CCN(CC)CCOc1ccc2nc(N(C)C)sc2c1 [Diamthazole]
> 45.8 µM | > 45.8 µM | O=C(Cn1c(=O)sc2ccc(Cl)cc21)N1CCN(CCO)CC1 [Tiaramide hydrochloride]
> 45.8 µM | > 45.8 µM | Cc1onc(-c2ccccc2)c1-c1ccc(S(N)(=O)=O)cc1 [Valdecoxib]
> 45.8 µM | > 45.8 µM | Cc1cc(O)c(C(C)C)cc1Cl [6-Chlorothymol]
> 45.8 µM | > 45.8 µM | Oc1cc(O)c2c(c1)O[C@H](c1ccc(O)c(O)c1)[C@H](O)C2 [(-)-Epicatechin]
> 45.8 µM | > 45.8 µM | C[N+](C)(CCOc1ccccc1)Cc1cccs1 [Dimethyl(2-phenoxyethyl)-2-thenylammonium iodide]
> 45.8 µM | > 45.8 µM | O=c1c(O)c(-c2ccc(O)c(O)c2)oc2cc(O)cc(O)c12 [Quercetin]
> 45.8 µM | > 45.8 µM | CN(C)CCOc1ccccc1Cc1ccccc1 [Phenyltoloxamine citrate]
> 45.8 µM | > 45.8 µM | N[C@@H](C(=O)N[C@@H]1C(=O)N2C(C(=O)O)=C(Cl)CS[C@H]12)c1ccccc1 [CEFACLOR]
> 45.8 µM | > 45.8 µM | CN[C@@H]1[C@H](O)[C@H](NC)[C@H]2O[C@@]3(O)C(=O)C[C@@H](C)O[C@H]3O[C@@H]2[C@H]1O [Spectinomycin dihydrochloride]
> 45.8 µM | > 45.8 µM | CN1CCN(c2c(F)cc3c(=O)c(C(=O)O)cn(CCF)c3c2F)CC1 [Fleroxacin]
> 45.8 µM | > 45.8 µM | COc1ccc(CN(CCN(C)C)c2ccccn2)cc1 [Pyrilamine]
> 45.8 µM | > 45.8 µM | Cc1ccccc1N1C(=O)c2cc(S(N)(=O)=O)c(Cl)cc2NC1C (stereo unspecified) [Metolazone]
> 45.8 µM | > 45.8 µM | Cc1c(OCC(F)(F)F)ccnc1C[S@@+]([O-])c1nc2ccccc2[nH]1 [(R)-Lansoprazole]
> 45.8 µM | > 45.8 µM | O=C(O)CCc1nc(-c2ccccc2)c(-c2ccccc2)o1 [Oxaprozin]
> 45.8 µM | > 45.8 µM | O=C(C1CCCCC1)N1CC(=O)N2CCCc3ccccc3C2C1 (stereo unspecified) [Epsiprantel]
> 45.8 µM | > 45.8 µM | O=C(CCCCCCCCC#CI)Oc1ccccc1 [Phenyl 11-iodo-10-undecynoate]
> 45.8 µM | > 45.8 µM | CCCC(=O)Nc1c(I)cc(I)c(CC(CC)C(=O)O)c1I (stereo unspecified) [Sodium tyropanoate]
> 45.8 µM | > 45.8 µM | CCCCN(CCCC)C(=S)[S-].CCCCN(CCCC)C(=S)[S-].[Zn+2] [Zinc dibutyldithiocarbamate]

IC50 cell viability (ICRF193 0 nM) | IC50 cell viability (ICRF193 200 nM) | Compound
> 45.8 µM | > 45.8 µM | CC1=C[C@H](O)CC(C)(C)[C@H]1/C=C/C(C)=C/C=C/C(C)=C/C=C/C=C(C)/C=C/C=C(C)/C=C/C1=C(C)C[C@@H](O)CC1(C)C [Xanthophyll]
> 45.8 µM | > 45.8 µM | C[C@H](CN1CCCC1)C(=O)c1ccc(C(F)(F)F)cc1 [Lanperisone hydrochloride]
> 45.8 µM | > 45.8 µM | COc1ccc(Cl)cc1C(=O)NCCc1ccc(S(=O)(=O)NC(=O)NC2CCCCC2)cc1 [Glybenclamide]
> 45.8 µM | > 45.8 µM | Cc1cccn2c(=O)c(-c3nnn[nH]3)cnc12 [Pemirolast potassium]
> 45.8 µM | > 45.8 µM | CCN[C@@H]1C[C@H](N)[C@@H](O[C@H]2OC(CN)=CC[C@H]2N)[C@H](O)[C@H]1O[C@H]1OC[C@](C)(O)[C@H](NC)[C@H]1O [Netilmicin sulfate]
> 45.8 µM | > 45.8 µM | C[Se]CC[C@H](N)C(=O)O [Selenomethionine]
> 45.8 µM | > 45.8 µM | CCN[C@H]1C[C@H](C)S(=O)(=O)c2sc(S(N)(=O)=O)cc21 [Dorzolamide hydrochloride]
> 45.8 µM | > 45.8 µM | Cc1c(Nc2ncccc2C(=O)O)cccc1C(F)(F)F [Flunixin meglumine]
> 45.8 µM | > 45.8 µM | COc1ccnc2c1CCCCC2[S+]([O-])c1nc2ccccc2[nH]1 (stereo unspecified) [Nepaprazole]
> 45.8 µM | > 45.8 µM | Cc1ncc(C[n+]2csc(CCOP(=O)(O)OP(=O)(O)O)c2C)c(N)n1 [Thiamine pyrophosphate]
> 45.8 µM | > 45.8 µM | CN(C)CCOC(c1ccccc1)c1ccc(Br)cc1 (stereo unspecified) [Bromodiphenhydramine]
> 45.8 µM | > 45.8 µM | CC(C)=CCC/C(C)=C/CC/C(C)=C/C(=O)OCC(=O)[C@@]1(O)CC[C@H]2[C@@H]3CCC4=CC(=O)C=C[C@]4(C)[C@H]3[C@@H](O)C[C@@]21C [Prednisolone farnesylate]
> 45.8 µM | > 45.8 µM | NCCC[C@H](NC(=O)[C@@H]1CCCN1C(=O)[C@@H]1CSSC[C@H](N)C(=O)N[C@@H](Cc2ccc(O)cc2)C(=O)N[C@@H](Cc2ccccc2)C(=O)N[C@@H](CCC(N)=O)C(=O)N[C@@H](CC(N)=O)C(=O)N1)C(=O)NCC(N)=O [ORNIPRESSIN]
> 45.8 µM | > 45.8 µM | CCCc1ccc(OCC(=O)N2CCN(C(=O)COc3ccc(CCC)cc3OC)CC2)c(OC)c1 [Simetride]
> 45.8 µM | > 45.8 µM | Cc1c(N(C)C)c(=O)n(-c2ccccc2)n1C [4-Dimethylaminoantipyrine]
> 45.8 µM | > 45.8 µM | Cc1cc2c(cc1CC(=O)c1sccc1S(=O)(=O)Nc1onc(C)c1Cl)OCO2 [Sitaxentan]
> 45.8 µM | > 45.8 µM | c1ccc2c(CC3=NCCN3)cccc2c1 [Naphazoline hydrochloride]
> 45.8 µM | > 45.8 µM | NNc1nncc2ccccc12 [Apresoline]
> 45.8 µM | > 45.8 µM | N=C(N)c1ccc(/C=C/c2ccc(C(=N)N)cc2O)cc1 [Hydroxystilbamidine bis(methanesulfonate)]

IC50 cell viability (ICRF193 0 nM) | IC50 cell viability (ICRF193 200 nM) | Compound
> 45.8 µM | > 45.8 µM | O=C(O)c1cc(/N=N/c2ccc(S(=O)(=O)Nc3ccccn3)cc2)ccc1O [Sulfasalazine]
> 45.8 µM | > 45.8 µM | O=C(O)CCC/C=C\CC1C(O)CC(O)C1/C=C/C(O)COc1cccc(Cl)c1 (stereo unspecified) [Cloprostenol (sodium salt)]
> 45.8 µM | > 45.8 µM | CC(C)OC(=O)C(C)(C)Oc1ccc(C(=O)c2ccc(Cl)cc2)cc1 [Fenofibrate]
> 45.8 µM | > 45.8 µM | CC(C)[N+](C)(CCOC(=O)C1c2ccccc2Oc2ccccc21)C(C)C [Propantheline bromide]
> 45.8 µM | > 45.8 µM | CC/C=C\C/C=C\C/C=C\CCCCCCCC(=O)O [Linolenic acid]
> 45.8 µM | > 45.8 µM | COc1cc(CNC(=O)CCCC/C=C/C(C)C)ccc1O [(E)-Capsaicin]
> 45.8 µM | > 45.8 µM | C[C@]12CC[C@@H]3c4ccc(OS(=O)(=O)O)cc4CC[C@H]3[C@@H]1CCC2=O [ESTROPIPATE]
> 45.8 µM | > 45.8 µM | C[N+](C)(C)CCOC(=O)CCC(=O)OCC[N+](C)(C)C [Succinylcholine chloride]
> 45.8 µM | > 45.8 µM | O=C(OCC(O)CO)c1ccccc1Nc1ccnc2c(C(F)(F)F)cccc12 (stereo unspecified) [Floctafenine]
> 45.8 µM | > 45.8 µM | NCCNC(=O)c1ccc(Cl)cn1 [Lazabemide hydrochloride]
> 45.8 µM | > 45.8 µM | CC(C)OC(=O)C(C(=O)OC(C)C)=C1SC=CS1 [Malotilate]
> 45.8 µM | > 45.8 µM | CC(C)=CCC/C(C)=C/CC/C(C)=C/CC/C(C)=C/CC/C(C)=C/CC1=C(C)C(=O)c2ccccc2C1=O [Menaquinone]
> 45.8 µM | > 45.8 µM | COC(=O)/C=C\C(=O)OC [Dimethyl maleate]
> 45.8 µM | > 45.8 µM | OC[C@H]1O[C@@H](n2cnc3c2N=CNC[C@H]3O)C[C@@H]1O [Pentostatin]
> 45.8 µM | > 45.8 µM | CC(=O)Nc1ccc(C(=O)O)cc1 [4-Acetamidobenzoic acid]
> 45.8 µM | > 45.8 µM | O=C(O)c1ccccc1-c1c2ccc(=O)cc-2oc2cc(O)ccc12 [Fluorescein sodium]
> 45.8 µM | > 45.8 µM | C[C@]12C=CC(=O)N[C@@H]1CC[C@@H]1[C@@H]2CC[C@]2(C)[C@@H](C(=O)Nc3cc(C(F)(F)F)ccc3C(F)(F)F)CC[C@@H]12 [Dutasteride]
> 45.8 µM | > 45.8 µM | CC(S)C(=O)NCC(=O)O (stereo unspecified) [Tiopronin]

Compound | IC50 cell viability (ICRF193 0 nM) | IC50 cell viability (ICRF193 200 nM)
Cc1nnc2n1-c1sc(Br)cc1C(c1ccccc1Cl)=NC2 [Brotizolam] | > 45.8 µM | > 45.8 µM
CC(C)N(CCC(C(N)=O)(c1ccccc1)c1ccccn1)C(C)C (stereo unspecified) [Disopyramide] | > 45.8 µM | > 45.8 µM
CC[C@H]1CN2CC[C@H]1C[C@@H]2[C@@H](O)c1ccnc2ccc(OC)cc12 [Hydroquinidine HCl] | > 45.8 µM | > 45.8 µM
O=P1(NCCCl)OCCCN1CCCl (stereo unspecified) [Ifomide] | > 45.8 µM | > 45.8 µM
C=C1CC[C@@]2(O)[C@H]3Cc4ccc(O)c5c4[C@@]2(CCN3CC2CC2)[C@H]1O5 [Nalmefene] | > 45.8 µM | > 45.8 µM
COP(=S)(OC)Oc1ccc(SC)c(C)c1 [Fenthion] | > 45.8 µM | > 45.8 µM
O=C(Nc1ccc(Br)cc1)c1cc(Br)cc(Br)c1O [Tribromsalan] | > 45.8 µM | > 45.8 µM
